Data reported in the NIST ThermoML archive (doi:10.1016/j.jct.2016.12.021).
± gives the expanded uncertainty stated by the source.

Settings: Liquid, Closed cell (Static) method

SMILES	vapor or sublimation pressure (293.18 K) [kPa]	vapor or sublimation pressure (298.15 K) [kPa]	vapor or sublimation pressure (313.15 K) [kPa]	vapor or sublimation pressure (323.15 K) [kPa]	vapor or sublimation pressure (353.15 K) [kPa]
CCC [propane]	836.8 ± 2.4	950.8 ± 2.8	1380.1 ± 10	1713 ± 4.5	3135.4 ± 6.2
FC(F)F [trifluoromethane]	4171.7 ± 11	4709.3 ± 12	–	–	–
